“Also recorded” adds a separate entry of the source.
Legend:
[1] = tested on: mouse bone marrow-derived DC; experiment: IL-6 ELISA of DC supernatants; assay type: cell-based; settings: 48 hours
Protocol: Six day mouse bone marrow-derived DC from wild type or IL-6 KO mice were stimulated with isotype control antibody sHIgM39 or B7-DC XAb. IL-6 levels in culture supernatants were assessed 48 hours later by ELISA.
DC of wild type origin or from CD40 deficient mice were stimulated with 10 μg/ml control antibody or B7-DC XAb for 48 hours. Supernatants from the different treatment groups were harvested and quantified for the amount of IL-6 by sandwich ELISA as per the manufacturer's protocol (eBioscience, San Diego, Calif.).

[2] = tested on: matured human monocyte-derived DC; experiment: Antigen uptake assay, matured human DC; assay type: cell-based; settings: matured human DC, OVA-FITC
Protocol: FIGS. 2A to 2G are a series of pictures showing that a kinase activated pathway regulates antibody-induced antigen uptake by matured DC. Matured human monocyte-derived DC were treated with the MTAb B7-DC XAb for varying time periods and evaluated for the phosphorylation status of select signaling pathway intermediates by immunoprecipitation with DAP12 (MC457), Syk (4D10), and PLCγ1 (MC490) reactive antibodies followed by western blot analysis using the phosphotyrosine reactive antibody 4G10 as a probe (FIGS. 2A-2C). Samples of the cells blocked with indicated concentration of piceatannol (FIG. 2D) or with […] of piceatannol (FIG. 2E) were analyzed for phosphorylation of Syk (FIG. 2D) and PLCγ1 (FIG. 2E). To investigate the functional importance of these signaling intermediates in the regulation of antigen uptake by matured DC activated with B7-DC XAb, varying concentrations of pharmacologic inhibitors were used to block the activity of p72Syk (piceatannol) and PLCγ1 (U73122) (FIGS. 2F and 2G, respectively). Antigen uptake was assessed by pulsing cultures with FITC-conjugated ovalbumin and measuring intracellular fluorescence 16 hours later in CD11c positive cells by flow cytometry.
Human DC were generated from peripheral blood CD14^+ monocytes by incubation in GM-CSF and IL-4 for five days. […] All cultures were pulsed with OVA-FITC at the time of treatment with IgM antibodies, and […] OVA-FITC was assessed 24 hours later by flow cytometry.
FIGS. 4A and 4B are a series of plots showing the effects of kinase inhibitors on OVA-FITC uptake by matured human DC, as determined by flow cytometry. […] All cells were pulsed with OVA-FITC at the time of treatment with IgM antibody, and CD11c+ cells were analyzed for OVA-FITC uptake 24 hours later by flow cytometry. […]
Antigen uptake experiments were carried out as described previously (Radhakrishnan et al. (2005) Proc. Natl. Acad. Sci. U.S.A. 102:11438-11443). […] The matured cells were incubated with ovalbumin labeled with FITC or APC and control antibody or B7-DC XAb for two hours, washed and analyzed by FACSCALIBUR™ (Becton Dickinson). […]

[3] = tested on: CD11c+ draining lymph node cells; experiment: In vivo antigen uptake by CD11c+ draining lymph node cells; design: species or system mouse; settings: systemic antibody
Protocol: FIG. 7A is a pair of pictures of western blot analysis for phosphorylation of DAP12 and Syk in B7-DC XAb or control antibody-treated mouse DC, as indicated. FIG. 7B is a graph plotting percent CD11c+ inguinal lymph node cells in mice after OVA-FITC was introduced into the footpads of mice treated systemically with isotype control antibody or the MTAb B7-DC XAb (n=3/group). Cells were analyzed by flow cytometry 24 hours after OVA-FITC introduction.
Antigen uptake experiments were carried out as described previously (Radhakrishnan et al. (2005) Proc. Natl. Acad. Sci. U.S.A. 102:11438-11443). Day 5 DC were matured with TLR ligand CpG-ODN for mouse DC, or with pI:C for human DC. The matured cells were incubated with ovalbumin labeled with FITC or APC and control antibody or B7-DC XAb for two hours, washed and analyzed by FACSCALIBUR™ (Becton Dickinson). In studies involving inhibitors, cells were pretreated 30 minutes as indicated or at 10 μM concentration prior to addition of control antibody or B7-DC XAb. In vivo antigen uptake assays involving wild type or TREM-2−/− mice were carried out by intravenous injection of 10 μg of control antibody or B7-DC XAb on three consecutive days (days −1, 0 and +1). Ovalbumin coupled to FITC was injected in the right foot pad at 1 mg/ml in PBS at 100 μA volume. […] The data are expressed as percent green cells (ovalbumin-FITC) that are positive for CD11c.

B7-DC XAb: human monoclonal IgM from a Waldenstrom's macroglobulinemia patient that binds and cross-links B7-DC on DC
IL-6 secretion ([1]; DC from CD40 KO mice): absence of NF-κB activation and IL-6 secretion; also recorded: do not secrete IL-6
IL-6 secretion ([1]; DC from wild type mice): producing IL-6
antigen uptake by matured DC [2]: regaining the ability to take up antigen; also recorded: take up ovalbumin when activated
uptake of labeled ovalbumin by CD11c+ lymph node cells ([3]; TREM-2 KO mice): had no effect on uptake
uptake of labeled ovalbumin in lymph nodes ([3]; wild type mice): significantly activated uptake of labeled ovalbumin
